# Experiments:
# Phosphodiesterase 1 = Phosphodiesterase 1 (Bos taurus, UniProt Q01061+P14100); experiment: Inhibition of bovine aorta phosphodiesterase 1; type: protein assay
# [1] = target: cGMP-dependent 3',5'-cyclic phosphodiesterase (Homo sapiens, UniProt O00408); experiment: Inhibition of phosphodiesterase 2
# Phosphodiesterase 3B = Phosphodiesterase 3B (Bos taurus, UniProt E1BN64); experiment: Inhibition of bovine heart phosphodiesterase 3
# Phosphodiesterase 4 = Phosphodiesterase 4 (Homo sapiens, UniProt P27815+Q08499+Q07343+Q08493); experiment: Inhibition of phosphodiesterase 4; type: protein assay
# [2] = target: cGMP-specific 3',5'-cyclic phosphodiesterase (Bos taurus, UniProt Q28156); experiment: Inhibition of bovine lung phosphodiesterase 5
# Sequence of Phosphodiesterase 3B (E1BN64 whole entry): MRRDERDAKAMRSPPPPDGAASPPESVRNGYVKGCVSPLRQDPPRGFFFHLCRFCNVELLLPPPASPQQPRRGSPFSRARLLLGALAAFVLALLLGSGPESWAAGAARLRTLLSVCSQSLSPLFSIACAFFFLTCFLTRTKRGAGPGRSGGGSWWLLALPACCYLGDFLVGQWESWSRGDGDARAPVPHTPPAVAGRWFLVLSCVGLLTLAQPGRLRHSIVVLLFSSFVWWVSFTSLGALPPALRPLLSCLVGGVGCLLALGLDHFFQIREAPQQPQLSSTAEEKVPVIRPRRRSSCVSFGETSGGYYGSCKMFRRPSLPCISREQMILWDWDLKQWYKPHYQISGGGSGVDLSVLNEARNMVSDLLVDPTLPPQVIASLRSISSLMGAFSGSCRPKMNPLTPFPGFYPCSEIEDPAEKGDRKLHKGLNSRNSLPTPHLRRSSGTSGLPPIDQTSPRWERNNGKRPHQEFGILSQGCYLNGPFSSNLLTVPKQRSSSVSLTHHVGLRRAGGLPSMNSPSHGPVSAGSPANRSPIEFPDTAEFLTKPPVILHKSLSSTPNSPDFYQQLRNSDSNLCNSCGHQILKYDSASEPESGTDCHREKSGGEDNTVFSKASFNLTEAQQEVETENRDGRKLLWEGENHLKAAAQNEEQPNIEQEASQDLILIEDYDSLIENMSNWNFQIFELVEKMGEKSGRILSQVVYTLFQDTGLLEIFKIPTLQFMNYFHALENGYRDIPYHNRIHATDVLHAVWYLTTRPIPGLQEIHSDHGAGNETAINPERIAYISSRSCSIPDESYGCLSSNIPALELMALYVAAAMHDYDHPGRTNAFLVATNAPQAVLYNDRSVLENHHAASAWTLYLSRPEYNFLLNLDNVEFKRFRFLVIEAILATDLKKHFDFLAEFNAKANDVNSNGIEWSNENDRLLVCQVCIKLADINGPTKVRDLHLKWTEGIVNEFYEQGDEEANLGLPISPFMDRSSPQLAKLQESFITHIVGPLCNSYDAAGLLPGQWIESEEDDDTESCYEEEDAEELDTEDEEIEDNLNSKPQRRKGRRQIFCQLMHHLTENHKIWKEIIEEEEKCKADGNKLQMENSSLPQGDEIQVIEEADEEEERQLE
# Sequence of cGMP-dependent 3',5'-cyclic phosphodiesterase (O00408 whole entry): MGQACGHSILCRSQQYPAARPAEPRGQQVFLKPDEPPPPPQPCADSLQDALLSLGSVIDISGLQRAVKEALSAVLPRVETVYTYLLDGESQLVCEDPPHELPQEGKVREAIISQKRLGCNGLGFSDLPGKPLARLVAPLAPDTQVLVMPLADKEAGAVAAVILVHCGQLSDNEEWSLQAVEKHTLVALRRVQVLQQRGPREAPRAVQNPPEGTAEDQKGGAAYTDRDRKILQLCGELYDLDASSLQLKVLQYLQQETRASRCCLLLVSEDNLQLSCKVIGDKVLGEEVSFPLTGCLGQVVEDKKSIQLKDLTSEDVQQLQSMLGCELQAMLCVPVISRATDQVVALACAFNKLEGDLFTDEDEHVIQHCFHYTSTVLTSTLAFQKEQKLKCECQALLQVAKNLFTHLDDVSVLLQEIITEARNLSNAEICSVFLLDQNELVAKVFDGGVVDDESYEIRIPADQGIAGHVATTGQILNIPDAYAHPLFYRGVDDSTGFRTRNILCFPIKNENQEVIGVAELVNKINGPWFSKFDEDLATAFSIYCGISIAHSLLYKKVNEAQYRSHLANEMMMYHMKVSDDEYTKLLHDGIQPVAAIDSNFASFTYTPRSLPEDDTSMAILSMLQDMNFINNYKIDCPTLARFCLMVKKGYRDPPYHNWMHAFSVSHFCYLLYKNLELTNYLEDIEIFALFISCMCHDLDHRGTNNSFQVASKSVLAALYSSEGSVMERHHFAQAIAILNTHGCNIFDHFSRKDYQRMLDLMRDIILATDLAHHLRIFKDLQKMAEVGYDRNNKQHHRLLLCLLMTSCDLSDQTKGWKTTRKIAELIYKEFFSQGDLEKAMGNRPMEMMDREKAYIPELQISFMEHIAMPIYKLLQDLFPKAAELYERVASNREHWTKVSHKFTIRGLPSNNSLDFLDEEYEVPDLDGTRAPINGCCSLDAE
smiles,measurement,setting,value
CN1C(=O)c2c(nc(-c3ccc(C4CCCCC4)cc3)n2Cc2ccccc2)N2CC3(CCCC3)N=C12,IC50,Phosphodiesterase 1,110 nM
same,IC50,[1],17000 nM
same,IC50,Phosphodiesterase 3B,> 100000 nM
same,IC50,Phosphodiesterase 4,2200 nM
same,IC50,[2],190 nM
